Results published in article PMC10600239, “Selective MCL-1 inhibitor ABBV-467 is efficacious in tumor models but is associated with cardiac troponin increases in patients” (Communications Medicine, 2023).

Legend:
[1] = Phase 1 first-in-human study (NCT04178902): efficacy (IMWG criteria, immunoglobulin, free light chain); type: in vivo; details: for Kappa Lt Chain,Free/Lambda Lt Chain,Free / Immunoglobulin G: patient; for Kappa Lt Chain,Free/Lambda Lt Chain,Free: normal range 0.22-1.52; for Immunoglobulin G: normal range 5.65-17.65
From the text: This FIH study (NCT04178902) for ABBV-467 was a multicenter, open-label, dose-escalation study enrolling patients aged ≥18 years who had R/R MM, with the option to enroll R/R AML once recommended phase 2 dose (RP2D) was established. The study design was originally planned to consist of 2 parts: dose escalation and dose expansion, including a minimum of 6 patients treated during dose escalation at what was ultimately to be declared the RP2D. Patients must have received 3 or more prior lines of therapy including at least 1 or more immunomodulatory agents, 1 or more proteasome inhibitors, and 1 or more anti-CD38 monoclonal antibodies. Other eligibility criteria included: Eastern Cooperative Oncology Group performance status ≤2, measurable disease as defined by International Myeloma Working Group (IMWG) consensus criteria, an echocardiogram with an ejection fraction ≥50%, and adequate hematologic, hepatic, and renal function. The prespecified primary objectives were to characterize the safety and toxicity profiles, to establish the RP2D, and to determine the pharmacokinetic (PK) profile of ABBV-467 monotherapy. Safety evaluations included, but were not limited to, adverse event (AE) monitoring, physical examinations, vital sign measurements, electrocardiogram (ECG), cardiac enzyme monitoring, and clinical laboratory testing (hematology and chemistry) as a measure of safety and tolerability for the entire study duration. Parameters used to determine PK included maximum observed plasma concentration (Cmax), terminal elimination half-life (t1/2), area under the plasma concentration-time curve (AUC) from time 0 to time of last measurable concentration (AUCt), AUC from time 0 to infinity (AUC0-∞), and clearance using non-compartmental methods. Secondary objectives were preliminary evaluation of the efficacy of ABBV-467 in R/R MM and R/R AML. Preliminary efficacy endpoints were overall response rate (ORR), clinical benefit rate (CBR), and duration of response (DOR) as evaluated per adapted IMWG[36] criteria for MM and per adapted International Working Group (IWG)[37] and European Leukemia Net (ELN)[38] criteria for AML.

[2] = 4-week (5-dose) IV infusion toxicity study with 4-week recovery
Method: range-finding studies, and 4-we ek (5-dose) with recovery GLP studies in rats and dogs. For all studies, test item was
administered once weekly by 30 -minute IV infusion. Standard GLP endpoints were assessed including in- life (body weights,
clinical observations, eye exams), electro cardiograms (dog s only), clinical pathology (hematology, clinical chemistry, and
coagulation) and anatomic pathology (macroscopic and mic roscopic observations and organ weights).
Study design was generally in compliance with FDA Redbook
Guidance IV.C. 3.a. and IV.C.3. b. sections on short-term toxicity studies with rodents and non- rodents, respectively (viz.
Studies were appr oved by the animal use committee of Charles River Laboratories, Mattawan, MI. No animals or
data were excluded from analysis. Healthy dogs, as determined by veterinary physical examination and clinical pathology,
were randomized between dose groups using laboratory information management softw are.

[3] = target: off-target receptors, ion channels, and transporters (Homo sapiens, UniProt O94806); test: Off-target profiling (Supplementary Data 1); details: TR-FRET Kinome; Invitrogen A-1169612.6 .2(Subs Conc)
[4] = target: off-target receptors, ion channels, and transporters (Homo sapiens, UniProt P07948); test: Off-target profiling (Supplementary Data 1); details: TR-FRET Kinome, SignalChem A-1196581.2 .002(Subs Conc)
[5] = target: off-target receptors, ion channels, and transporters (Homo sapiens, UniProt Q92918); test: Off-target profiling (Supplementary Data 1); details: TR-FRET Kinome; SignalChem A-1169612.6 .025(Subs Conc)
[6] = target: off-target receptors, ion channels, and transporters (Homo sapiens, UniProt P07949); test: Off-target profiling (Supplementary Data 1); details: TR-FRET Kinome; Invitrogen A-1180691.2 .1(Subs Conc)
[7] = target: off-target receptors, ion channels, and transporters (Homo sapiens, UniProt P08913); test: Off-target profiling (Supplementary Data 1)
[8] = target: off-target receptors, ion channels, and transporters (Homo sapiens, UniProt P43403); test: Off-target profiling (Supplementary Data 1); details: TR-FRET Kinome; SignalChem A-1167389.7 .015(Subs Conc)
[9] = target: off-target receptors, ion channels, and transporters (Homo sapiens, UniProt Q04771); test: Off-target profiling (Supplementary Data 1); details: TR-FRET Kinome; Invitrogen A-1180691.2 .05(Subs Conc)
[10] = target: off-target receptors, ion channels, and transporters (Homo sapiens, UniProt P42681); test: Off-target profiling (Supplementary Data 1); details: TR-FRET Kinome; SignalChem A-1224127.6 .005(Subs Conc)
[11] = target: off-target receptors, ion channels, and transporters (Homo sapiens, UniProt Q13464); test: Off-target profiling (Supplementary Data 1); details: TR-FRET Kinome; Invitrogen A-1213250.2 .1(Subs Conc)
[12] = target: off-target receptors, ion channels, and transporters (Homo sapiens, UniProt Q12851); test: Off-target profiling (Supplementary Data 1); details: TR-FRET Kinome; Invitrogen A-1169612.6 .04(Subs Conc)
[13] = target: off-target receptors, ion channels, and transporters (Homo sapiens, UniProt P09619); test: Off-target profiling (Supplementary Data 1); details: TR-FRET Kinome; Invitrogen A-1169612.6 .025(Subs Conc)
[14] = target: off-target receptors, ion channels, and transporters (Homo sapiens, UniProt P14416); test: Off-target profiling (Supplementary Data 1)
[15] = target: off-target receptors, ion channels, and transporters (Homo sapiens, UniProt O95819); test: Off-target profiling (Supplementary Data 1); details: TR-FRET Kinome; Invitrogen A-1180691.2 .1(Subs Conc)
[16] = target: off-target receptors, ion channels, and transporters (Homo sapiens, UniProt P52333); test: Off-target profiling (Supplementary Data 1); details: TR-FRET Kinome; Invitrogen A-1180691.2 .05(Subs Conc)

Chain of off-target receptors, ion channels, and transporters (Homo sapiens, UniProt P07948) (P07948 2-512): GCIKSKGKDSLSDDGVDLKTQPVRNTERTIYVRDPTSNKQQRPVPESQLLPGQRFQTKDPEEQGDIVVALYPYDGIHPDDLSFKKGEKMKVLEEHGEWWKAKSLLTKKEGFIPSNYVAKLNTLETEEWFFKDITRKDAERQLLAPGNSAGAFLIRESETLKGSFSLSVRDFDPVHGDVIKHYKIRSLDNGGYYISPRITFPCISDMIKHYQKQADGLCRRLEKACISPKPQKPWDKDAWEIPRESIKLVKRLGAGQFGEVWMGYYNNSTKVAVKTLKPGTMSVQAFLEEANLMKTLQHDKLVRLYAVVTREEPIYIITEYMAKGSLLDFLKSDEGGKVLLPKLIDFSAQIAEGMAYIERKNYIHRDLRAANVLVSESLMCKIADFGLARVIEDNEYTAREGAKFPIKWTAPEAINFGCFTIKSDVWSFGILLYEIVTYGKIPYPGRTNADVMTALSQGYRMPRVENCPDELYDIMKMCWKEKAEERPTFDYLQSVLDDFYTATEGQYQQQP
Chain of off-target receptors, ion channels, and transporters (Homo sapiens, UniProt P14416) (P14416 whole entry): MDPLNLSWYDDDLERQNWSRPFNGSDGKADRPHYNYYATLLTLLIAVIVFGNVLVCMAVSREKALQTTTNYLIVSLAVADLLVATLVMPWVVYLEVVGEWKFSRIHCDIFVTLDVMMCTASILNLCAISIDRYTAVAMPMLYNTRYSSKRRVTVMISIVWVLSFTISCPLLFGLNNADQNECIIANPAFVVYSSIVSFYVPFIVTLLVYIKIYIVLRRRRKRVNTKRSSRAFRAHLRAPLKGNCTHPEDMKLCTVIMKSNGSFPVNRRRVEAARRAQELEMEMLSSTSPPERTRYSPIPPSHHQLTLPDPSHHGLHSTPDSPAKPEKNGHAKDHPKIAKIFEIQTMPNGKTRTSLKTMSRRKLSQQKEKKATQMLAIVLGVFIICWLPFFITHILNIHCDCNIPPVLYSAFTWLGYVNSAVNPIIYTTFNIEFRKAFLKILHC
Chain of off-target receptors, ion channels, and transporters (Homo sapiens, UniProt P08913) (P08913 whole entry): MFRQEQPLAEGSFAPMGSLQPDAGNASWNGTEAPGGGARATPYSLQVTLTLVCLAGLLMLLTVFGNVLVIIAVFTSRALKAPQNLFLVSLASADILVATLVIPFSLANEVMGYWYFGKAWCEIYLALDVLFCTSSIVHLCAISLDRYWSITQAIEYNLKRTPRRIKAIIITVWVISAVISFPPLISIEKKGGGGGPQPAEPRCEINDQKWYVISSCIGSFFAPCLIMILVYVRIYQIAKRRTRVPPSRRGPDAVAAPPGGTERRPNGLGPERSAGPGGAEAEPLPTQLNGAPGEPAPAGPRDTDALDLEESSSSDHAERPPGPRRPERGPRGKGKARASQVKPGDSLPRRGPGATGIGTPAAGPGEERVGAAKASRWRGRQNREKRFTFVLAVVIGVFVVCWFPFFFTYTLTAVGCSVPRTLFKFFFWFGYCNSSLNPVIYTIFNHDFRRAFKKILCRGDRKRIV
Chain of off-target receptors, ion channels, and transporters (Homo sapiens, UniProt P09619) (P09619 33-1106): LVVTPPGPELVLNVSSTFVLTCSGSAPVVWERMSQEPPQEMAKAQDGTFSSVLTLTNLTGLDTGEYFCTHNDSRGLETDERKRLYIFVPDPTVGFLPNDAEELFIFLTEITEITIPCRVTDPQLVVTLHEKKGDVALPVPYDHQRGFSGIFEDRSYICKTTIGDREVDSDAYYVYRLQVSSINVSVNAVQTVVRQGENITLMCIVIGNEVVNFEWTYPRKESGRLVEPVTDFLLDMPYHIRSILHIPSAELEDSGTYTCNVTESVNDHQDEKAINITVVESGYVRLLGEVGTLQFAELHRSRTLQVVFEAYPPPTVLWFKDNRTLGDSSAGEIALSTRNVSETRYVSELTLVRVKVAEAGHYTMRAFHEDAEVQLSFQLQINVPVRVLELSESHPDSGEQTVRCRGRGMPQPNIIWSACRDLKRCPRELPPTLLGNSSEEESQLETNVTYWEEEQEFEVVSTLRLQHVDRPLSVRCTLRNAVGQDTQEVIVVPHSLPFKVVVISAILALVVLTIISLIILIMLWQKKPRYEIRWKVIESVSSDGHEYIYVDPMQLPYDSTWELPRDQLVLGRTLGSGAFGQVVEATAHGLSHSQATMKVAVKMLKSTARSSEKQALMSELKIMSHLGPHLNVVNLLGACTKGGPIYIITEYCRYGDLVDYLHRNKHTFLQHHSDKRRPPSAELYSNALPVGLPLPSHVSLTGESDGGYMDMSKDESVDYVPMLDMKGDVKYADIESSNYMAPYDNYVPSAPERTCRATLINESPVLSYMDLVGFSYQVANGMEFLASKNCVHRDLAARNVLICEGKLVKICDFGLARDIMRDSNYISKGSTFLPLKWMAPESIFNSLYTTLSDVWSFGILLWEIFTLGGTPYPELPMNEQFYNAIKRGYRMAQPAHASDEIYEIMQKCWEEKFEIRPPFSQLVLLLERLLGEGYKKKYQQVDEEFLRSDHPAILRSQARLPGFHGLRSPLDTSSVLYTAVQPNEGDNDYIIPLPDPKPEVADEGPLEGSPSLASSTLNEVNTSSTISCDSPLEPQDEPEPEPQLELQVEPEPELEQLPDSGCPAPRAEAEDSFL
Chain of off-target receptors, ion channels, and transporters (Homo sapiens, UniProt Q92918) (Q92918 whole entry): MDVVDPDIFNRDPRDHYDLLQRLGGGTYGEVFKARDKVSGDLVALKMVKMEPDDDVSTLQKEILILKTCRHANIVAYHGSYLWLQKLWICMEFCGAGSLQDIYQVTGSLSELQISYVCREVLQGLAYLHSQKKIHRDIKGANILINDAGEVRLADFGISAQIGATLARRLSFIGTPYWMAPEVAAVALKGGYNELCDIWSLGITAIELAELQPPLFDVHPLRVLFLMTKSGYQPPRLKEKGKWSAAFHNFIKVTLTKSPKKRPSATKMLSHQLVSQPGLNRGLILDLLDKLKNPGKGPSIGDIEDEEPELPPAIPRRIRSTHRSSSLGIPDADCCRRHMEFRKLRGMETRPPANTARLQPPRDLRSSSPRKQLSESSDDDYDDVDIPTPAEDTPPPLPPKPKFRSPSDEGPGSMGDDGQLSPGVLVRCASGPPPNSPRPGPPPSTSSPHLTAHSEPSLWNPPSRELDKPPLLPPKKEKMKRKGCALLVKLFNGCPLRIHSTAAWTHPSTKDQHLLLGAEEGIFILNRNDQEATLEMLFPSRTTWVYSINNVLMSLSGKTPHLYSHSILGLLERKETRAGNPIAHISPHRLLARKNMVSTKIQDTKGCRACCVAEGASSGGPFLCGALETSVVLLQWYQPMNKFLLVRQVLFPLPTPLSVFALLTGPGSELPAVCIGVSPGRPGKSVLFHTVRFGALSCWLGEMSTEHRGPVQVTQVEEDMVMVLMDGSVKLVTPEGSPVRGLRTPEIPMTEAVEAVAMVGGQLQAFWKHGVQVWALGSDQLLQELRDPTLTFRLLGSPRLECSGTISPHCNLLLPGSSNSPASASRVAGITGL
Chain of off-target receptors, ion channels, and transporters (Homo sapiens, UniProt Q12851) (Q12851 whole entry): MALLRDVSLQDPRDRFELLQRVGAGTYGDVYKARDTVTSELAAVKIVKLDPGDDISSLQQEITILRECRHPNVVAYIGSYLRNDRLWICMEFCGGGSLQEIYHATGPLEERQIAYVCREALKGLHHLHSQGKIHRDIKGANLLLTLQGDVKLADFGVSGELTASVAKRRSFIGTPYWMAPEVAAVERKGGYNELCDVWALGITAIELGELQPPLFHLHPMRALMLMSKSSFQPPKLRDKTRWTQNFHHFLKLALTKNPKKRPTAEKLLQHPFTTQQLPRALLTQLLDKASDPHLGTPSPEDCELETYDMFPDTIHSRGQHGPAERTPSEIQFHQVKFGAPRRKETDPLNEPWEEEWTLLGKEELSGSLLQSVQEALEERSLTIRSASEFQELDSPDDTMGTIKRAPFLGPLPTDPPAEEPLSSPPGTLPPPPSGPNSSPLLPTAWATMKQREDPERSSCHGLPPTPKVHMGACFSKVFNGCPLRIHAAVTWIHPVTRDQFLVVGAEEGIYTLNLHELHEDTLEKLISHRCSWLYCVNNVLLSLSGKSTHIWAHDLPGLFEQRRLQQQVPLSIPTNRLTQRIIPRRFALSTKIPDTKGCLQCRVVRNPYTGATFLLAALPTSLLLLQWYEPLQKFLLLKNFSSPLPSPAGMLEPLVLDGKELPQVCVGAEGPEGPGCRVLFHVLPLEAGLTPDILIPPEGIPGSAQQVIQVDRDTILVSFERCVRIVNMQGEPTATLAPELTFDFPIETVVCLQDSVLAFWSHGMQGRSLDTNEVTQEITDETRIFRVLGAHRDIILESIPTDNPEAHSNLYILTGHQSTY
Chain of off-target receptors, ion channels, and transporters (Homo sapiens, UniProt P42681) (P42681 whole entry): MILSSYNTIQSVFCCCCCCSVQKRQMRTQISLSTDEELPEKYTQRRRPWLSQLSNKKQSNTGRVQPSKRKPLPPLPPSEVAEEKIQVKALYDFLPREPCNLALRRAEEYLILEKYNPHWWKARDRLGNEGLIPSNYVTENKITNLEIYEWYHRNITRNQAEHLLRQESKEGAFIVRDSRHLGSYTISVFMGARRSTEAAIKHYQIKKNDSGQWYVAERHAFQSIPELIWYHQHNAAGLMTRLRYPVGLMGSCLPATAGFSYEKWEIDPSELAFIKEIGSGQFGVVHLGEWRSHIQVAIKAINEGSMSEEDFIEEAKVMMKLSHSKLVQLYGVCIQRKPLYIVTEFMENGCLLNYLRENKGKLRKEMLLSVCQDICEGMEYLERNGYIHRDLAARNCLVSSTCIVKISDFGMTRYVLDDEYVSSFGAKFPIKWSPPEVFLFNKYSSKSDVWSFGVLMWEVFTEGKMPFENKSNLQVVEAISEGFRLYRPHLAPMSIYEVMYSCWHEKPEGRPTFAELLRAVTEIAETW

## Cc1c(Cl)c2c(Cl)c(C)c1-c1c(-c3ccc(F)cc3)sc3ncnc(c13)O[C@@H](C(=O)O)Cc1cc(ccc1OCc1ccnc(-c3ccc(OC[C@H]4COCCO4)cc3)n1)OC[C@@H](CN1CCN(C)CC1)O2 [ABBV-467]
[1]; 1 patient, […] dose level
  duration of stable disease: approximately 8 months
[1]; 8 patients with R/R MM
  objective responses: No objective responses
[1]; LBDY 1
  Kappa Lt Chain,Free/Lambda Lt Chain,Free: 31.35 RATIO
  Immunoglobulin G: 28.1 g/L
[1]; LBDY 29
  Kappa Lt Chain,Free/Lambda Lt Chain,Free: 25.56 RATIO
  Immunoglobulin G: 26.9 g/L
[1]; LBDY 57
  Kappa Lt Chain,Free/Lambda Lt Chain,Free: 23.38 RATIO
  Immunoglobulin G: 23.3 g/L
[1]; LBDY 85
  Kappa Lt Chain,Free/Lambda Lt Chain,Free: 6.92 RATIO
  Immunoglobulin G: 28.9 g/L
[1]; LBDY 115
  Kappa Lt Chain,Free/Lambda Lt Chain,Free: 6.82 RATIO
  Immunoglobulin G: 30.6 g/L
[1]; LBDY 143
  Kappa Lt Chain,Free/Lambda Lt Chain,Free: 7.51 RATIO
  Immunoglobulin G: 29.6 g/L
[1]; LBDY 171
  Kappa Lt Chain,Free/Lambda Lt Chain,Free: 8.26 RATIO
  Immunoglobulin G: 24.4 g/L
[1]; LBDY 199
  Kappa Lt Chain,Free/Lambda Lt Chain,Free: 3.99 RATIO
  Immunoglobulin G: 40.2 g/L
[1]; LBDY 227
  Kappa Lt Chain,Free/Lambda Lt Chain,Free: 5.42 RATIO
  Immunoglobulin G: 29.5 g/L
[1]; LBDY 238
  Kappa Lt Chain,Free/Lambda Lt Chain,Free: 8.01 RATIO
  Immunoglobulin G: 32.9 g/L
[1]; LBDY -6
  Kappa Lt Chain,Free/Lambda Lt Chain,Free: 31.47 RATIO
  Immunoglobulin G: 23.8 g/L
[2]; beagle dog, 10 mg/kg after 1 or 2 doses (days 3–10)
  mortality: Mortality
[2]; dogs, after a 4-week recovery period
  reversibility of toxicities: partially or fully reversible
[2]; dogs, once-weekly dosing
  primary target organs of apoptosis/single-cell necrosis: pancreas, liver, gastrointestinal tract, and the hematopoietic system
[2]; multidose GLP toxicity study, dogs
  impact on cardiovascular endpoints (anatomic, clinical pathology, and/or function): No direct impact
[3]
  Prkcn - IC50: > 10 µM
[4]; read-out: LYN-B - IC50
  IC50: > 10 µM
[4]; read-out: LYN-B - Ki
  Ki: > 8.15 µM
[5]
  MAP4K1 - IC50: > 10 µM
[6]
  RET - IC50: > 10 µM
[7]; read-out: Alpha2A CHO Human - EC50, Bioprofiling 6pt Ag
  EC50: > 10 µM
[7]; read-out: Alpha2A CHO Human - IC50, Bioprofiling 6pt Antag, UK-14304
  IC50: > 10 µM
[8]
  Zap70 - IC50: > 10 µM
[9]
  ACVR1 - IC50: > 10 µM
[10]
  TXK - IC50: > 10 µM
[11]
  Rock1 - IC50: > 10 µM
[12]
  MAP4K2 - IC50: > 10 µM
[13]
  PDGFRB - IC50: > 10 µM
[14]; Bioprofiling 6pt Ag
  D2L CHO Human - EC50: > 10 µM
[14]; Bioprofiling 6pt Antag, Quinpirole
  D2L CHO Human - IC50: > 10 µM
[15]
  MAP4K4 - IC50: > 10 µM
[16]
  JAK3 - IC50: > 10 µM
